# Assay results as given in patent US20100028892A1, “YEAST BASED EXPRESSION OF PROTEASES AND METHODS OF USE” (Burnham Institute for Medical Research, priority 2008, published 2010).
# Key:
# [1] = test system: Caspases; test: validation of 384 well yeast-based Caspase-dependent lacZ reporter gene assays with pharmacological inhibitors; assay type: cell-based, human
# Text: When converting the yeast-based protease reporter system to HTS assay, conditions from agar plates to liquid medium in microtiter wells must be revised. This revision comprises, utilizing the measured β-galactosidase produced by yeast carrying the Caspase-cleavable reporter proteins, and assaying the colorimetric product (OD620nm) derived from X-gal substrate in 384 well plates, as a measure of the lacZ reporter gene activity. We compared β-galactosidase activity produced in the presence or absence of the broad-spectrum caspase inhibitory compound, zVAD-fmk ([…]-Valinyl-Alaninyl-Aspartyl-fluoromethylketone). Among the variables that were initially interrogated were initial seeding cell density, time of culture, concentration of X-gal substrate, and supporting carbohydrate (raffinose vs mannose). Note that it was determined that it is not advisible to employ glucose in yeast media because it represses the GAL1 promoter used in some plasmids. An example of data obtained using the plural-component system of Fas/FADD/Caspase-8 is presented. All variables tested altered the signal:noise ratio of the assay. […] For the two-component system of ASC/Caspase-1 and for the plural-component system of NALP1ΔLRR/ASC/Caspase-1, the same conditions were optimal, among those tested (not shown). For the Fas/Fadd/Caspase 8, the caspase and adaptor protein (Fadd) were expressed at relatively small amounts (a weak promoter and low copy number plasmid are used) and the upstream activator (Fas) was expressed in a large amount.
# The 384 well assay format was further validated, using zVAD-fmk, a peptidyl inhibitor with broad-spectrum activity against animal Caspases. […]
# The validation results of a yeast-based Caspase assay using a pharmacological inhibitor of Caspases are shown in FIG. 11 consisting of FIGS. 11A-C (A) Caspase-1, single-component assay. […] For (A-C), relative absorbance at 620 nm was measured (mean ±std dev; n=3-5 independent experiments). […]
# (§1) Assays were performed in a total volume of […] in triplicate. […] Absorbance at 620 nm was measured 2-3 days after culture at 30° C.
# [2] = biological target: T1, Caspase6 (Homo sapiens, UniProt P55212); test: yeast 384 well β-galactosidase reporter assay, Caspase6; assay type: cell-based; details: Caspase6 in yeast, 384 well β-galactosidase activity assay
# T1 construct: each full-length Caspase construct was expressed (for Caspases-1, 2, 3, 4, 5, 6, 7, and 9) at high levels; HA (N); expressed in transfected cells; host or cells: Saccharomyces cerevisiae (EGY48)
# T1 sequence (P55212 1-293): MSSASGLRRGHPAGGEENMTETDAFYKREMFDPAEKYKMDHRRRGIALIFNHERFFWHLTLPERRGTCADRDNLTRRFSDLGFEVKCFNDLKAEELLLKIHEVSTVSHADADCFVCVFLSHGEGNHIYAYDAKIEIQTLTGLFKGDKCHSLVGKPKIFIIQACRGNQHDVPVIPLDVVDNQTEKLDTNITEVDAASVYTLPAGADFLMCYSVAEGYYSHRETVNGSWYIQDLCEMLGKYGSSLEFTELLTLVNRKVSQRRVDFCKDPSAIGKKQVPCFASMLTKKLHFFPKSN
# Text: (§2) When converting the yeast-based protease reporter system to HTS assay, conditions from agar plates to liquid medium in microtiter wells must be revised. This revision comprises, utilizing the measured β-galactosidase produced by yeast carrying the Caspase-cleavable reporter proteins, and assaying the colorimetric product (OD620nm) derived from X-gal substrate in 384 well plates, as a measure of the lacZ reporter gene activity. We compared β-galactosidase activity produced in the presence or absence of the broad-spectrum caspase inhibitory compound, zVAD-fmk ([…]-Valinyl-Alaninyl-Aspartyl-fluoromethylketone). […] Note that it was determined that it is not advisible to employ glucose in yeast media because it represses the GAL1 promoter used in some plasmids. […]
# (§3) Yeast expressing various Caspases alone (at high levels) or in combination with upstream activators (at low levels) and cleavable substrates containing appropriate tetrapeptides reorganized by these proteases were used in 384 well β-galactosidase activity assays to assess inhibition by zVAD-fmk. The compound was titrated into assays at various concentrations and percentage inhibition was determined.
# as §1
# [3] = biological target: T2, Caspase1 activated with Asc (Homo sapiens, UniProt P29466); test: yeast 384 well β-galactosidase reporter assay, Caspase1 activated with Asc; assay type: cell-based; details: Caspase1 activated with Asc in yeast, 384 well β-galactosidase activity assay
# T2 construct: Caspase (all full-length zymogen proforms) expression plasmids; FLAG (C); expressed in transfected cells; host or cells: Saccharomyces cerevisiae (EGY191 or EGY48)
# T2 sequence (P29466 120-297 limits assumed): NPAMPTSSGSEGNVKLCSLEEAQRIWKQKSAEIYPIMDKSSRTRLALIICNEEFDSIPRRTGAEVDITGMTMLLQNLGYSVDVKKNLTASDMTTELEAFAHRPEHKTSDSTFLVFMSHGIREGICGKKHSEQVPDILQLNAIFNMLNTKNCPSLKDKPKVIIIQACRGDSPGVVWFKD
# T2 sequence (P29466 317-404 limits assumed): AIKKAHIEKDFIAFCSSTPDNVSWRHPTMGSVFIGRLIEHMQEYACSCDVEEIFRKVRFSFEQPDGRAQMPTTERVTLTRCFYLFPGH
# Text: as §2, §3, §1
# [4] = biological target: T3, Caspase9 activated with Apaf* (Homo sapiens, UniProt P55211); test: yeast 384 well β-galactosidase reporter assay, Caspase9 activated with Apaf*; assay type: cell-based; details: Caspase9 activated with Apaf* in yeast, 384 well β-galactosidase activity assay
# T3 construct: Caspase (all full-length zymogen proforms) expression plasmids; HA (N); expressed in transfected cells; host or cells: Saccharomyces cerevisiae EGY48
# T3 sequence (P55211 1-416): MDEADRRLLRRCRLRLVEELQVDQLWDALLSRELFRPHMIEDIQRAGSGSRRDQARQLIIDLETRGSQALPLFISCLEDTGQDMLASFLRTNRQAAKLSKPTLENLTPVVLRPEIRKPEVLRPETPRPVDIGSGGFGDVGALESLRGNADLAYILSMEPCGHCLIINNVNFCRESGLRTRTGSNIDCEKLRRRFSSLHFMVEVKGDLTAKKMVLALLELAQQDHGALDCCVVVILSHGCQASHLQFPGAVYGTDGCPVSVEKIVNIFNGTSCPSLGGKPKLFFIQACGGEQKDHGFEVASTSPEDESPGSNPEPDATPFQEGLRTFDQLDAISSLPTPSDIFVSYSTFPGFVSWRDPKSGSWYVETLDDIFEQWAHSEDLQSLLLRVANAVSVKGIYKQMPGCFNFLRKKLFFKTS
# Text: as §2, §3, §1
substance,measurement,setting,value
benzoyl-Valinyl-Alaninyl-Aspartyl-fluoromethylketone [zVAD-fmk],effect on β-galactosidase activity / activation of the lacZ reporter gene,[1]; 384 well yeast-based Caspase-dependent reporter gene assay,inhibited β-galactosidase activity in a dose-dependent fashion
same,IC50,"[1]; range over the yeast-based Caspase assays, 384 well format, read-out: concentration required for achieving 50% inhibition of β-galactosidase activity",1 to 10 µM
same,IC50,[2],6.78 µM
same,IC50,[3],1 µM
same,IC50,[4],10.7 µM
